# Tests used:
# Test in all cases: relative viability (nuclei count vs DMSO), 5 days (fraction); higher = more cells survive
# NCI-H2342 = system: NCI-H2342
# Summary of the method: (§1)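 One day after seeding in 1536-well plates, lung cancer cell lines were dosed by pin tool. Dosing was either single-drug or a fixed anchor-drug dose plus five library-drug doses (not always all listed) in √10 steps. After 5 days, nuclei were stained in one fix-and-stain step and counted on 4× images, and relative viability is the nuclei count of treated wells over that of vehicle wells, given as the median of duplicate plates.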
# NCI-H2170 = system: NCI-H2170
# Summary of the method: as §1
# NCI-H1395 = system: NCI-H1395
# Summary of the method: as §1
# NCI-H661 = system: NCI-H661
# Summary of the method: as §1
# HCC-366 = system: HCC-366
# Summary of the method: as §1
# BEN = system: BEN
# Summary of the method: as §1
# NCI-H1734 = system: NCI-H1734
# Summary of the method: as §1
# SK-MES-1 = system: SK-MES-1
# Summary of the method: as §1
# NCI-H1993 = system: NCI-H1993
# Summary of the method: as §1
# NCI-H1437 = system: NCI-H1437
# Summary of the method: as §1
# NCI-H1355 = system: NCI-H1355
# Summary of the method: as §1
# NCI-H522 = system: NCI-H522
# Summary of the method: as §1
# NCI-H2405 = system: NCI-H2405
# Summary of the method: as §1
# NCI-H1792 = system: NCI-H1792
# Summary of the method: as §1
# EKVX = system: EKVX
# Summary of the method: as §1
# HCC-827 = system: HCC-827
# Summary of the method: as §1
# LOU-NH91 = system: LOU-NH91
# Summary of the method: as §1
# SK-LU-1 = system: SK-LU-1
# Summary of the method: as §1
# HARA = system: HARA
# Summary of the method: as §1
# NCI-H2009 = system: NCI-H2009
# Summary of the method: as §1
# NCI-H2087 = system: NCI-H2087
# Summary of the method: as §1
# NCI-H647 = system: NCI-H647
# Summary of the method: as §1
compound,measurement,setting,value
CCN(CC)CCCCNc1ncc2cc(-c3cc(OC)cc(OC)c3)c(NC(=O)NC(C)(C)C)nc2n1 + Nc1nc2[nH]cc(CCc3ccc(C(=O)N[C@@H](CCC(=O)O)C(=O)O)cc3)c2c(=O)[nH]1 [Pemetrexed] (partner 0.2 µM),relative viability,NCI-H2342; first compound 0.01 µM,0.762
same,relative viability,NCI-H2342; first compound 0.03162 µM,0.777
same,relative viability,NCI-H2342; first compound 0.1 µM,0.803
same,relative viability,NCI-H2342; first compound 0.3162 µM,0.818
same,relative viability,NCI-H2342; first compound 1 µM,0.755
same,relative viability,NCI-H2170; first compound 0.01 µM,0.251
same,relative viability,NCI-H2170; first compound 0.03162 µM,0.293
same,relative viability,NCI-H2170; first compound 0.1 µM,0.262
same,relative viability,NCI-H2170; first compound 0.3162 µM,0.238
same,relative viability,NCI-H2170; first compound 1 µM,0.275
same,relative viability,NCI-H1395; first compound 0.01 µM,0.898
same,relative viability,NCI-H1395; first compound 0.03162 µM,0.787
same,relative viability,NCI-H1395; first compound 0.1 µM,0.955
same,relative viability,NCI-H1395; first compound 0.3162 µM,1.06
same,relative viability,NCI-H1395; first compound 1 µM,0.607
same,relative viability,NCI-H661; first compound 0.01 µM,0.968
same,relative viability,NCI-H661; first compound 0.03162 µM,0.886
same,relative viability,NCI-H661; first compound 0.1 µM,0.961
same,relative viability,NCI-H661; first compound 0.3162 µM,0.986
same,relative viability,NCI-H661; first compound 1 µM,0.95
same,relative viability,HCC-366; first compound 0.01 µM,0.164
same,relative viability,HCC-366; first compound 0.03162 µM,0.172
same,relative viability,HCC-366; first compound 0.1 µM,0.19
same,relative viability,HCC-366; first compound 0.3162 µM,0.172
same,relative viability,HCC-366; first compound 1 µM,0.191
same,relative viability,BEN; first compound 0.01 µM,0.664
same,relative viability,BEN; first compound 0.03162 µM,0.681
same,relative viability,BEN; first compound 0.1 µM,0.826
same,relative viability,BEN; first compound 0.3162 µM,0.77
same,relative viability,BEN; first compound 1 µM,0.69
same,relative viability,NCI-H1734; first compound 0.01 µM,0.405
same,relative viability,NCI-H1734; first compound 0.03162 µM,0.387
same,relative viability,NCI-H1734; first compound 0.1 µM,0.418
same,relative viability,NCI-H1734; first compound 0.3162 µM,0.409
same,relative viability,NCI-H1734; first compound 1 µM,0.384
same,relative viability,SK-MES-1; first compound 0.01 µM,1.11
same,relative viability,SK-MES-1; first compound 0.03162 µM,0.94
same,relative viability,SK-MES-1; first compound 0.1 µM,1.05
same,relative viability,SK-MES-1; first compound 0.3162 µM,1.07
same,relative viability,SK-MES-1; first compound 1 µM,0.98
same,relative viability,NCI-H1993; first compound 0.01 µM,0.57
same,relative viability,NCI-H1993; first compound 0.03162 µM,0.583
same,relative viability,NCI-H1993; first compound 0.1 µM,0.652
same,relative viability,NCI-H1993; first compound 0.3162 µM,0.689
same,relative viability,NCI-H1993; first compound 1 µM,0.707
same,relative viability,NCI-H1437; first compound 0.01 µM,0.332
same,relative viability,NCI-H1437; first compound 0.03162 µM,0.309
same,relative viability,NCI-H1437; first compound 0.1 µM,0.324
same,relative viability,NCI-H1437; first compound 0.3162 µM,0.328
same,relative viability,NCI-H1437; first compound 1 µM,0.381
same,relative viability,NCI-H1355; first compound 0.01 µM,1.06
same,relative viability,NCI-H1355; first compound 0.03162 µM,1.09
same,relative viability,NCI-H1355; first compound 0.1 µM,1.17
same,relative viability,NCI-H1355; first compound 0.3162 µM,1.11
same,relative viability,NCI-H1355; first compound 1 µM,1.02
same,relative viability,NCI-H522; first compound 0.01 µM,0.989
same,relative viability,NCI-H522; first compound 0.03162 µM,0.918
same,relative viability,NCI-H522; first compound 0.1 µM,1.09
same,relative viability,NCI-H522; first compound 0.3162 µM,0.888
same,relative viability,NCI-H522; first compound 1 µM,0.921
same,relative viability,NCI-H2405; first compound 0.01 µM,0.994
same,relative viability,NCI-H2405; first compound 0.03162 µM,1.06
same,relative viability,NCI-H2405; first compound 0.1 µM,1.14
same,relative viability,NCI-H2405; first compound 0.3162 µM,1.3
same,relative viability,NCI-H2405; first compound 1 µM,1.04
same,relative viability,NCI-H1792; first compound 0.01 µM,1.17
same,relative viability,NCI-H1792; first compound 0.03162 µM,0.932
same,relative viability,NCI-H1792; first compound 0.1 µM,0.634
same,relative viability,NCI-H1792; first compound 0.3162 µM,0.945
same,relative viability,NCI-H1792; first compound 1 µM,0.296
same,relative viability,EKVX; first compound 0.03162 µM,0.354
same,relative viability,EKVX; first compound 0.1 µM,0.362
same,relative viability,EKVX; first compound 0.3162 µM,0.475
same,relative viability,EKVX; first compound 1 µM,0.379
same,relative viability,HCC-827; first compound 0.01 µM,0.266
same,relative viability,HCC-827; first compound 0.03162 µM,0.261
same,relative viability,HCC-827; first compound 0.1 µM,0.265
same,relative viability,HCC-827; first compound 0.3162 µM,0.269
same,relative viability,HCC-827; first compound 1 µM,0.244
same,relative viability,LOU-NH91; first compound 0.01 µM,0.406
same,relative viability,LOU-NH91; first compound 0.03162 µM,0.376
same,relative viability,LOU-NH91; first compound 0.1 µM,0.641
same,relative viability,LOU-NH91; first compound 0.3162 µM,0.388
same,relative viability,LOU-NH91; first compound 1 µM,0.433
same,relative viability,SK-LU-1; first compound 0.01 µM,0.971
same,relative viability,SK-LU-1; first compound 0.03162 µM,0.93
same,relative viability,SK-LU-1; first compound 0.1 µM,1.1
same,relative viability,SK-LU-1; first compound 0.3162 µM,1.18
same,relative viability,SK-LU-1; first compound 1 µM,0.854
same,relative viability,HARA; first compound 0.01 µM,0.202
same,relative viability,HARA; first compound 0.03162 µM,0.234
same,relative viability,HARA; first compound 0.1 µM,0.279
same,relative viability,HARA; first compound 0.3162 µM,0.22
same,relative viability,HARA; first compound 1 µM,0.281
same,relative viability,NCI-H2009; first compound 0.01 µM,1.12
same,relative viability,NCI-H2009; first compound 0.03162 µM,1.03
same,relative viability,NCI-H2009; first compound 0.1 µM,1.08
same,relative viability,NCI-H2009; first compound 0.3162 µM,1.18
same,relative viability,NCI-H2009; first compound 1 µM,0.988
same,relative viability,NCI-H2087; first compound 0.01 µM,0.716
same,relative viability,NCI-H2087; first compound 0.03162 µM,0.637
same,relative viability,NCI-H2087; first compound 0.1 µM,0.746
same,relative viability,NCI-H2087; first compound 0.3162 µM,0.645
same,relative viability,NCI-H2087; first compound 1 µM,0.727
same,relative viability,NCI-H647; first compound 0.01 µM,0.188
same,relative viability,NCI-H647; first compound 0.03162 µM,0.127
same,relative viability,NCI-H647; first compound 0.1 µM,0.157
same,relative viability,NCI-H647; first compound 0.3162 µM,0.161
same,relative viability,NCI-H647; first compound 1 µM,0.136
